Experiments:
Format in all cases: biochemical
IGF1R = IGF1R (Homo sapiens, UniProt P08069); assay: IGF1R kinase test (mobility variation analysis, Caliper EZ Reader); conditions: kinase enzymatic activity, Table 1; read-out: EGFR IGF1R IC50
Method: (§1) Mobility variation analysis was performed to determine the affinity of the compound for EGFRΔ19del/T790M/C797S, EGFR WT and IGF1R. The enzymatic reaction scheme is as follows:
(§2) 1. Prepare 1*kinase buffer as follows.
2. Preparation of compound concentration gradient: The test compound was tested with an initial concentration of 3000 nM (300 nM for some triple mutations and 100 nM for others), diluted in a 384 source plate (96-well plate for comparative compound 1 and compounds 1-38) to a 100% DMSO solution with 100-fold final concentration, and the compound is 3-fold diluted with Precision to 10 concentrations. A dispenser Echo 550 was used to transfer 250 nL 100-fold final concentration of the compound to the target plate OptiPlate-384F.
3. Prepare 2.5-fold final concentration (5-fold for comparative compound 1 and compounds 1-38) of kinase solution with 1×Kinase buffer. Following steps should also be carried out for comparative compound 1 and compounds 1-38: Add each prepared intermediate dilution compounds to the compound wells of 384-well plate respectively, and test the repeated wells of each concentration; add 5% DMSO of 5 plates into the negative control well and the positive control well respectively. Prepare 2.5-fold final concentration of kinase solution with 1×Kinase buffer.
(§3) 4. Add 10 μL of 2.5-fold final concentration of kinase solution to the compound well and the positive control well; add 10 μL of 1×Kinase buffer to the negative control well.
(§4) 5. Centrifuge at 1000 rpm for 30 s, shake the reaction plate for well mixing, and then incubate at room temperature for 10 minutes.
(§5) 6. Prepare a mixture of ATP and Kinase substrate at 5/3-fold final concentration with 1×Kinase buffer.
7. Add 15 μL mixture of 5/3-fold (2.5-fold for comparative compound 1 and compounds 1-38) final concentration of ATP and substrate to start reaction.
(§6) 8. Centrifuge the 384-well plate at 1000 rpm for 30 s, shake it well and then incubate it at room temperature for corresponding time.
(§7) 9. Add 30 μL of stop detection solution to stop the kinase reaction, centrifuge at 1000 rpm for 30 s, and shake it well.
(§8) 10. Read conversion rate with Caliper EZ Reader.
(§9) % Inhibition=((Conversion%_max−Conversion%_sample)/(Conversion%_max−Conversion%_min))*100
(§10) Wherein: Conversion%_sample is the sample conversion rate reading; Conversion%_min: Mean value of negative control wells, representing the conversion rate reading of wells without enzymatic activity; Conversion%_max: Mean value of positive control wells, representing the conversion rate reading of wells without compound inhibition.
(§11) The dose-effect curve was fitted with concentration log value as X-axis and percentage inhibition rate as Y-axis. GraphPad Prism 5 analysis software was used for fitting Log (inhibitor) vs. response—Variable slope with the dose-effect curve to obtain IC50 value of enzymatic activity for each compound.
(§12) The calculation formula is as Y-Bottom+(Top-Bottom)/(1+10^((Log IC50−X)*HillSlope)).

EGFR WT = EGFR WT (Homo sapiens, UniProt P00533); assay: EGFR WT kinase test (mobility variation analysis, Caliper EZ Reader); conditions: kinase enzymatic activity, Table 1
Method: as §1, §2
(§13) 3. […] Prepare 2.5-fold final concentration of kinase solution with 1×Kinase buffer.
as §3, §4, §5, §6, §7, §8, §9, §10, §11, §12

EGFRΔ19del/T790M/C797S = EGFRΔ19del/T790M/C797S (Homo sapiens, UniProt P00533, T790M/C797S, form not given); assay: EGFR Δ19del/T790M/C797S kinase test (mobility variation analysis, Caliper EZ Reader); conditions: kinase enzymatic activity, Table 1
Method: as §1, §2, §13, §3, §4, §5, §6, §7, §8, §9, §10, §11, §12

Sequence of EGFR WT (P00533 25-1210): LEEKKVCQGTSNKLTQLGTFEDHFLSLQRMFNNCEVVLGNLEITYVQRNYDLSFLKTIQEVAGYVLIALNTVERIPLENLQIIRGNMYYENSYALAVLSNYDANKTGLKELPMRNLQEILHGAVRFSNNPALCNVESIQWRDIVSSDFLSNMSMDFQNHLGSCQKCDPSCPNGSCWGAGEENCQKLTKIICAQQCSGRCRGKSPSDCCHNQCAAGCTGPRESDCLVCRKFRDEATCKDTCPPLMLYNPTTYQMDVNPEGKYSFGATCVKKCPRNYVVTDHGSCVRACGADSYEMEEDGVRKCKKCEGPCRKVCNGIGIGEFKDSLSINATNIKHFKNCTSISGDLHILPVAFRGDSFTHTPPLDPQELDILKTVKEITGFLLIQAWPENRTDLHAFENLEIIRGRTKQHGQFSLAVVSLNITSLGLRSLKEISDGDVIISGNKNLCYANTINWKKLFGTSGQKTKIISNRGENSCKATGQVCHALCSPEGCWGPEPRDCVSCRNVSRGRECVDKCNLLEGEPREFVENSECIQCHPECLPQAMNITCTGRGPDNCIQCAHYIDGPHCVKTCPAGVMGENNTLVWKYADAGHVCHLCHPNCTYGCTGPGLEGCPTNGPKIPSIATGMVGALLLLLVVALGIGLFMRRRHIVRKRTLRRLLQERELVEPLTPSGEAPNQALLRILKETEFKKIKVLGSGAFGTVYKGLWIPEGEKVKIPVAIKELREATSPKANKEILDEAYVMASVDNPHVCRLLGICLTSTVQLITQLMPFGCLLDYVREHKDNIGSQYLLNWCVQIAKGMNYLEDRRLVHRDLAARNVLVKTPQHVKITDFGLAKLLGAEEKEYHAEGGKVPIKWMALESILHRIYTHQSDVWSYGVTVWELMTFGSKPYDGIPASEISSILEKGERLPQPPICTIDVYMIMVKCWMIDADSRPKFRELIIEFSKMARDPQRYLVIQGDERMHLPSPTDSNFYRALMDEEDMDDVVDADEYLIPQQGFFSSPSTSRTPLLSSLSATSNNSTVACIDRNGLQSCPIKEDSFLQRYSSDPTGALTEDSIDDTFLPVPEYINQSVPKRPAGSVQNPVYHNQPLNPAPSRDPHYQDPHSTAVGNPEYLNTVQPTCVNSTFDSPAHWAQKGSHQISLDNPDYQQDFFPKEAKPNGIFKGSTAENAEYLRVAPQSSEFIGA
Sequence of EGFRΔ19del/T790M/C797S (P00533 with tags, fused parts or gaps DEL746-750/T790M/C797S, form open): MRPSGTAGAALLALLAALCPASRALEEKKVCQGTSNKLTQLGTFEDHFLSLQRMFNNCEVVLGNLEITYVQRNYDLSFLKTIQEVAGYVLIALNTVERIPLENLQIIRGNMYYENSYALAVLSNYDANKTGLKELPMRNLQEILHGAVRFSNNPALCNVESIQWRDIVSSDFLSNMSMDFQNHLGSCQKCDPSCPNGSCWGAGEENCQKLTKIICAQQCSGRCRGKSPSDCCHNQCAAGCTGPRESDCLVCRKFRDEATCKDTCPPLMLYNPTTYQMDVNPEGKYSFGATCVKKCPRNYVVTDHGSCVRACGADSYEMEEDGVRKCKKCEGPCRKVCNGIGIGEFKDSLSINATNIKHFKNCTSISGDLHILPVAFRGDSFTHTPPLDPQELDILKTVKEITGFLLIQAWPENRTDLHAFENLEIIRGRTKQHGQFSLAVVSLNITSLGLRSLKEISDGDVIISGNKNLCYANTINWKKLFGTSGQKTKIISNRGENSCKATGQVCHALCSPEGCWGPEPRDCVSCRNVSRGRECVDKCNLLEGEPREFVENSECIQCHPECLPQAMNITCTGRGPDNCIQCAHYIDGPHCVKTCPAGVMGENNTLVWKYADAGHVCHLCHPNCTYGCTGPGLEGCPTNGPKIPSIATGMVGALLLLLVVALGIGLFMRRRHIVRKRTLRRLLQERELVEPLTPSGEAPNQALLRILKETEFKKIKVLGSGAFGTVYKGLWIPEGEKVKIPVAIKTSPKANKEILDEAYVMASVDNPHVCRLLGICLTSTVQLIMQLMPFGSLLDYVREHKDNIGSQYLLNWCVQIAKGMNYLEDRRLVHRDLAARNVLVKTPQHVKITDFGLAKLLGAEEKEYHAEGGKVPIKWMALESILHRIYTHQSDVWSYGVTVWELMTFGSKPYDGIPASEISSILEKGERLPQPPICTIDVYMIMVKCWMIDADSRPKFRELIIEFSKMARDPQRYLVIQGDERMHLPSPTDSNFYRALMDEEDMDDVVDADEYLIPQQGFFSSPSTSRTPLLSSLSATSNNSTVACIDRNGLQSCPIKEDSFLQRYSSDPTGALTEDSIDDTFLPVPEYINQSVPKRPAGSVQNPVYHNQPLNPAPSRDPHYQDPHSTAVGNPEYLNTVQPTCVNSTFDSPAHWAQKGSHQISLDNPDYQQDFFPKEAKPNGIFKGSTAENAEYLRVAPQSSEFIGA
Sequence of IGF1R (P08069 31-1367, species assumed): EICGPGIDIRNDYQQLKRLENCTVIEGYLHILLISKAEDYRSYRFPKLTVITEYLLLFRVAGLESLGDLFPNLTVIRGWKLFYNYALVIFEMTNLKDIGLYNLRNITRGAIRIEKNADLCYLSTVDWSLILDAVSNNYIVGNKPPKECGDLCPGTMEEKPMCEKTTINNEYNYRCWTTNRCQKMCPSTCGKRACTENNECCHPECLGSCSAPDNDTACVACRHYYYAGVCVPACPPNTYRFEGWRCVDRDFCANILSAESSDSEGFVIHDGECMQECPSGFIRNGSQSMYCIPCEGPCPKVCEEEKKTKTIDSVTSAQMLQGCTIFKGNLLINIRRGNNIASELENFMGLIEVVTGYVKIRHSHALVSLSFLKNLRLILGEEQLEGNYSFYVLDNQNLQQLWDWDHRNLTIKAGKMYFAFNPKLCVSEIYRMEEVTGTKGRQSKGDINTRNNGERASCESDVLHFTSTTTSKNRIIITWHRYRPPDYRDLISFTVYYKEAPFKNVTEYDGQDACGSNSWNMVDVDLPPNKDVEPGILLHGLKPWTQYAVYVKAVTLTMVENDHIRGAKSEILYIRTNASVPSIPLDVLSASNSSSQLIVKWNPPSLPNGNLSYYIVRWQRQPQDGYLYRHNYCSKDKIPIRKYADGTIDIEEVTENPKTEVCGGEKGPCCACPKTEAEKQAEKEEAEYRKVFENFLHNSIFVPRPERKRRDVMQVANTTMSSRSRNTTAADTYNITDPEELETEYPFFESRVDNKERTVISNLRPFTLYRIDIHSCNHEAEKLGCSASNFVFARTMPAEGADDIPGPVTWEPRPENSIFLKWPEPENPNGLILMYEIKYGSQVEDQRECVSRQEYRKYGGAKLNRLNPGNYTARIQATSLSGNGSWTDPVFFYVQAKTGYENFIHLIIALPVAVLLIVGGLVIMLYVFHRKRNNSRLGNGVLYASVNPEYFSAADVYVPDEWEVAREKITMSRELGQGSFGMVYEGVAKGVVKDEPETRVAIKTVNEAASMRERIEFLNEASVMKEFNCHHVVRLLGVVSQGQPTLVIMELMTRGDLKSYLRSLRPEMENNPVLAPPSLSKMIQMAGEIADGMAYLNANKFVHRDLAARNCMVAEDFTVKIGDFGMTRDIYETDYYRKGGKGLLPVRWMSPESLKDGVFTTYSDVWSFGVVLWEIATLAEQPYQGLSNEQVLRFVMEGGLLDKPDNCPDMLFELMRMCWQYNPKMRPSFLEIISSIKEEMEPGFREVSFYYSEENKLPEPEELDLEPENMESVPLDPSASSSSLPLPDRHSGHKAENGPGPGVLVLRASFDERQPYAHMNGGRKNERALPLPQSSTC

Row | SMILES | IC50 (IGF1R) | IC50 (EGFR WT) | IC50 (EGFRΔ19del/T790M/C797S)
1 | CCc1cc(Nc2ncc(Br)c(Nc3ccc(-c4nccn4C4CC4)cc3P(C)(C)=O)n2)c(OC)cc1N1CCC(N2CCN(C)CC2)CC1 [Compound 69] | 1940 nM | 316 nM | 4 nM
2 | CCc1cc(Nc2ncc(Br)c(Nc3ccc(-c4cccc(N(C)C)n4)cc3P(C)(C)=O)n2)c(OC)cc1N1CCC(N2CCN(C)CC2)CC1 [Compound 71] | 714 nM | 55.1 nM | 1.3 nM
3 | CCn1cc(-c2cc(Nc3ncc(Br)c(Nc4ccc(-c5cccc6cc[nH]c56)cc4P(C)(C)=O)n3)c(OC)cc2N2CCC(N3CCN(C)CC3)CC2)cn1 [Compound K-091, (2-((5-Bromo-2-((5-(1-ethyl-1H-pyrazol-4-yl)-2-methoxy-4-(4-(4-methylpiperazin-1-yl)piperidin-1-yl)phenyl)amino)pyrimidin-4-yl)amino)-5-(1H-indol-7-yl)phenyl)dimethylphosphine oxide] | 279 nM | 38.8 nM | 0.8 nM
4 | CCc1cc(Nc2ncc(Br)c(Nc3ccc(-c4cn(C)c5cccnc45)cc3P(C)(C)=O)n2)c(OC)cc1N1CCC(N2CCN(C)CC2)CC1 [Compound 42] | 1170 nM | 86.2 nM | 1.24 nM
5 | CCc1cc(Nc2ncc(Br)c(Nc3ccc(-c4ncsc4C)cc3P(C)(C)=O)n2)c(OC)cc1N1CCC(N2CCN(C)CC2)CC1 [Compound 60] | 418 nM | 47 nM | 0.6 nM
6 | CCc1cc(Nc2ncc(Br)c(Nc3ccc(-n4cccn4)cc3P(C)(C)=O)n2)c(OC)cc1N1CCC(N2CCN(C)CC2)CC1 [Compound 49, (2-((5-Bromo-2-((5-ethyl-2-methoxy-4-(4-(4-methylpiperazin-1-yl)piperidin-1-yl)phenyl)amino)pyrimidin-4-yl)amino)-5-(1H-pyrazol-1-yl)phenyl)dimethylphosphine oxide] | 2780 nM | 416 nM | 4.1 nM
7 | CCOc1noc(C)c1-c1ccc(Nc2nc(Nc3cc(CC)c(N4CCC(N5CCN(C)CC5)CC4)cc3OC)ncc2Cl)c(P(C)(C)=O)c1 [Compound 58, (2-((5-Chloro-2-((5-ethyl-2-methoxy-4-(4-(4-methylpiperazin-1-yl)piperidin-1-yl)phenyl)amino)pyrimidin-4-yl)amino)-5-(3-ethoxy-5-methylisoxazol-4-yl)phenyl)dimethylphosphine oxide] | 274 nM | 65 nM | 3.7 nM
8 | CCc1cc(Nc2ncc(Br)c(Nc3ccc(-c4cc5cc(C#N)ccc5[nH]4)cc3P(C)(C)=O)n2)c(OC)cc1N1CCC(N2CCN(C)CC2)CC1 [Compound 43] | 748 nM | 82.5 nM | 2.5 nM
9 | CCc1cc(Nc2ncc(Br)c(Nc3ccc(-c4ccn[nH]4)cc3P(C)(C)=O)n2)c(OC)cc1N1CCC(N2CCN(C)CC2)CC1 [Compound 39, (2-((5-Bromo-2-((5-ethyl-2-methoxy-4-(4-(4-methylpiperazin-1-yl)piperidin-1-yl)phenyl)amino)pyrimidin-4-yl)amino)-5-(1H-pyrazol-5-yl)phenyl)dimethylphosphine oxide] | 138 nM | 18.3 nM | 0.4 nM
10 | CCn1cc(-c2cc(Nc3ncc(Br)c(Nc4ccc(-c5nn(C)c6ncccc56)cc4P(C)(C)=O)n3)c(OC)cc2N2CCC(N3CCN(C)CC3)CC2)cn1 [Compound K-102, (2-((5-Bromo-2-((5-(1-ethyl-1H-pyrazol-4-yl)-2-methoxy-4-(4-(4-methylpiperazin-1-yl)piperidin-1-yl)phenyl)amino)pyrimidin-4-yl)amino)-5-(1-methyl-1H-pyrazolo[3,4-b]pyridin-3-yl)phenyl)dimethylphosphine oxide] |  |  | 0.3 nM
11 | CCc1cc(Nc2ncc(Cl)c(Nc3ccc(-c4cn[nH]c4)cc3P(C)(C)=O)n2)c(OC)cc1N1CCC(N2CCN(C)CC2)CC1 [Compound 48, (2-((5-Chloro-2-((5-ethyl-2-methoxy-4-(4-(4-methylpiperazin-1-yl)piperidin-1-yl)phenyl)amino)pyrimidin-4-yl)amino)-5-(1H-pyrazol-4-yl)phenyl)dimethylphosphine oxide] | 112 nM |  | 0.3 nM

— US20220402948A1, “EGFR INHIBITOR, COMPOSITION AND PREPARATION METHOD THEREFOR” (BETTA PHARMACEUTICALS CO., LTD., priority 2019, published 2022)
